The structures appear in SMILES notation. Calls of active or inactive are those of the source. No cut-off for these calls is given here.

Cholinesterase (Equus caballus), sequence (P81908 whole entry): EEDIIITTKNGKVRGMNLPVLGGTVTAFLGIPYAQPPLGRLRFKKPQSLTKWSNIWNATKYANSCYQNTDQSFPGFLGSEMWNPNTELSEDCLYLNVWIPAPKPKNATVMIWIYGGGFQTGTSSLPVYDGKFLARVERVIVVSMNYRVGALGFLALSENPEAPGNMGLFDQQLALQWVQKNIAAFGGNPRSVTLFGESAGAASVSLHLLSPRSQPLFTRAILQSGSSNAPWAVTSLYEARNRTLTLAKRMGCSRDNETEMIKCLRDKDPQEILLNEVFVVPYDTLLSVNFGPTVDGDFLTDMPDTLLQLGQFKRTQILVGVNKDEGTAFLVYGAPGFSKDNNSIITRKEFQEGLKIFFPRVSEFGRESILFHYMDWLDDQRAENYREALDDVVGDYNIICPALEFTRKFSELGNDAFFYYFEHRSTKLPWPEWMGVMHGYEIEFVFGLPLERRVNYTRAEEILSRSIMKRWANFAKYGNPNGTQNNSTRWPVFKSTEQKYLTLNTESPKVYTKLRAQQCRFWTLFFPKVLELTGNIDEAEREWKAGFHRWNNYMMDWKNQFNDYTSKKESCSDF

This experiment addresses Cholinesterase (Equus caballus) (UniProt P81908). The experiment is described as follows: Mixed type inhibition of equine serum BuChE by Dixon plot analysis.
As for `CC(=O)O[C@H]1CC[C@]2(C)[C@H]3C(=O)C[C@H]4[C@@H]5C[C@@](C)(C(=O)N6CC7CC[N+](C)(CC7)C6)CC[C@]5(C)CC[C@@]4(C)[C@]3(C)CC[C@H]2C1(C)C`, the inhibition mechanism result is “Active”.

In the case of `C=C(C)[C@@H]1CC[C@]2(C(=O)N3CC4CC[N+](C)(CC4)C3)CC[C@]3(C)[C@@H](CC[C@@H]4[C@@]5(C)CC[C@H](OC(C)=O)C(C)(C)[C@@H]5CC[C@]43C)[C@H]12`, the inhibition mechanism entry was “Active”. The entry for `CC(=O)O[C@H]1CC[C@]2(C)[C@H]3CC=C4[C@@H]5[C@@H](C)[C@H](C)CC[C@]5(C(=O)N5CC6CC[N+](C)(CC6)C5)CC[C@@]4(C)[C@]3(C)CC[C@H]2C1(C)C` is “Active”. In the case of `CC(=O)O[C@H]1CC[C@]2(C)[C@H]3CC[C@H]4[C@@H]5[C@H](C(C)=O)CC[C@]5(C(=O)N5CC6CC[N+](C)(CC6)C5)CC[C@@]4(C)[C@]3(C)CC[C@H]2C1(C)C`, the inhibition mechanism result was “Active”. In the case of `CC(=O)O[C@H]1CC[C@]2(C)[C@H]3CC=C4[C@@H]5CC(C)(C)CC[C@]5(C(=O)N5CC6CC[N+](C)(CC6)C5)CC[C@@]4(C)[C@]3(C)CC[C@H]2C1(C)C` it was “Active”.

Source of the values: ChEMBL document CHEMBL5143525, “N-methylated diazabicyclo[3.2.2]nonane substituted triterpenoic acids are excellent, hyperbolic and selective inhibitors for butyrylcholinesterase” (Eur J Med Chem, 2022).
